For series [1], the system named is SK-N-MC cells. The series is described as follows: [^3H]-thymidine uptake in SK-N-MC cells. It counts as cell-based. Conditions: Ang IV 10^−10-10^−7 M; LVVYPWTQRF 10^−10-10^−6 M. On the procedure:
(§1) NG108-15 and SK-N-MC cells were cultured in DMEM supplemented with 10% heat-inactivated FCS, 2% HAT supplement, and 100 U/ml penicillin/streptomycin. Cells were routinely used between passages 20 and 30.
(§2) Cells were plated at a density of 3×10^4 cells/well in 24 well Falcon plates that had been coated with 0.1 mg/ml poly-L-lysine hydrobromide. The cells were allowed to adhere overnight, and then serum deprived for 48 h before being treated with […] (SEQ ID NO:2) and/or Ang IV (10^−10 to 10^−6 M) for 24 h in medium with or without serum. Five hours before the end of the experiment 1 μCi of ^3H-thymidine was added to each well. At the completion of the incubation, cells were washed twice with 1 ml of PBS at 4° C., followed by 5% trichloroacetic acid at 4° C. for 30 min, which was aspirated before solubilizing the cells in 1 ml 0.25 M NaOH and 0.1% SDS for 30 min at 37° C. Samples were then collected into 5 ml of Ready Value scintillation fluid and ^3H measured in a liquid scintillation counter.

Series [2] has as its system rats. Conditions: intracerebroventricular dose 1 nmol; cited from earlier work.
The subject of series [3] is rat hippocampal slices. The series is described as follows: Potassium-evoked ^3H-choline release from rat hippocampal slices. It counts as cell-based. Conditions: at 10^−7M. On the procedure:
To determine the effect of IRAP inhibitors an acetylcholine release for rat hippocampal slices in vitro, rats were anaesthetized with sodium pentobarbitone, decapitated and the brain rapidly extracted and put on ice. The two sides of the hippocampus were then dissected, and stored in Krebs buffer on ice. The tissues were sectioned into 400 μm slices using a McI1wain slicer, and incubated with 10 μM of ^3H-choline in Krebs buffer for 20 min at 37° C. Following the incubation, the sections were transferred to Brandel superfusion chambers filled with carbogenated Krebs buffer, pH7.0 containing […] hemicholinium HC-3 to prevent choline reuptake. The slices were washed for 60 min at 37° C. with Krebs buffer at a flow rate of 500 μl/min. Superfusate samples were collected at 5 min intervals for the duration of the experiment. After a stable baseline was established, the hippocampal slices were depolarised by the addition of 30 mM KCl to the Krebs buffer and infused for 4 min (stimulation period S1). The tissue was then allowed to recover for 25 min before the next stimulation period (S2). To test the effect of […] […] Fractional ^3H-choline release, expressed as a ratio of S2/S1, was then calculated for each of the different peptides at the different doses.

For series [4], the system named is NG108-15 cells. The series is described as follows: ^3H-thymidine incorporation in NG108-15 cells. Type of series: cell-based, rat-mouse hybrid. On the procedure: as §1, §2
For series [5] the following is noted: conditions similar to the DNA synthesis experiments.

Turning to `CC[C@H](C)[C@H](NC(=O)[C@H](Cc1ccc(O)cc1)NC(=O)[C@@H](N)C(C)C)C(=O)N[C@@H](Cc1cnc[nH]1)C(=O)N1CCC[C@H]1C(=O)N[C@@H](Cc1ccccc1)C(=O)O` [Ang IV, VYIHPF], the “increase of [^3H]-thymidine uptake” value in series [1] is “up to 72 % above control levels”. Besides, the “latency in re-entering the dark chamber after an aversive stimulus” value in series [2] is listed as “increased the latency”. Besides, the “maximum effect on potassium-evoked ^3H-choline release” value in series [3] is listed as 150 % of control. Moreover, in series [4] (10^−10 to 10^−6 M, alone), the “stimulation of DNA synthesis” value was “did not stimulate DNA synthesis”. Besides, the “effect on LVVYPWTQRF-stimulated ^3H-thymidine incorporation” value in series [4] (concomitant 10^−6 M Ang IV) is reported as “completely abolished”. In series [5], the “degradation of the peptide” value was “some degradation”.

Source of the values: patent publication US20050020519A1, “Modulation of insulin-regulated aminopeptidase (irap)/angiotensin iv (at4) receptor activity” (priority 2001, published 2005).
